# From PMC5874133 (Science immunology, 2018)
# Ends that are not written are not given here.
# What was measured:
# [1] = test system: D222D clone 2 or a MelanA26–35-reactive clone vs. cognate peptide-pulsed LCLs; assay: inhibition of lysis of cognate peptide-pulsed LCLs by CD8^+ T-cell clones; type: cell-based, human; conditions: D222D clone 2 or MelanA26–35-reactive clone; 4 h, E/T 1/1; triplicate; Fig. 1F
# [2] = test system: ZnT8_186–194-reactive CD8^+ T-cell clone H017N; type: cell-based, human; conditions: peptide-pulsed LCLs, 0.1 µM, 6 h, percent cytokine^+ cells, two experiments, p=0.008, Fig. 7E
# [3] = target: recombinant HLA-A2 molecules (Homo sapiens, UniProt P04439, D140Y/D185E/D98H/E176V/E277Q/G131W/G231S/I119V/I121R/I166T/I218V/L300P/L318F/N151K/N90K/P208A/P217A/Q86G/Q94H/R138H/R169H/T345S); assay: peptide binding to recombinant HLA-A2
# [4] = test system: ZnT8_186–194-reactive CD8^+ T-cell clones; assay: effect on MMr staining of ZnT8_186–194-reactive CD8^+ T-cell clones; type: cell-based, human; conditions: normalized MMr fluorescence intensities between clones; Fig. 2B
Molecule,inhibition of lytic activity [1],Kd [3],further results
C[C@H]1CCC/C=C/[C@@H]2C[C@H](O)C[C@H]2[C@H](O)/C=C/C(=O)O1 [brefeldin A],marginally,,
KAANIVLTV [B. stercoris mimotope],,,agonist potency relative to native ZnT8_186–194 peptide [2]: stronger agonist potency
C/C=C/[C@H]1O[C@@](O)([C@@H](C)[C@H](O)[C@H](C)[C@H]2OC(=O)/C(OC)=C/C(C)=C/[C@@H](C)[C@@H](O)[C@@H](CC)[C@@H](O)[C@H](C)C/C(C)=C/C=C/[C@@H]2OC)C[C@@H](O[C@H]2C[C@@H](O)[C@H](OC(N)=O)[C@@H](C)O2)[C@@H]1C [concanamycin A],inhibited significantly,,
AVAANIVLTV [ZnT8_185–194],,0.207 µM,
VAANIVLTV [ZnT8_186–194],,0.015 µM,
Cc1nc(Nc2ncc(C(=O)Nc3c(C)cccc3Cl)s2)cc(N2CCN(CCO)CC2)n1 [dasatinib],,,effect on variability of MMr fluorescence intensity [4]: reduced variability
